Measurements from patent publication US11820975B2, “Human blood brain barrier model” (National Research Council of Canada, priority 2014, dated 2023).

Legend:
[1] = test system: AF-iPSC-BECs; type: in vitro ADME, human; details: AF-iPSC-BECs vs. HBMECs (Cell Systems), FIG. 6C
[2] = test system: AF-iPSC-derived neurons; type: cell-based, human
[3] = test system: AF-iPSC-BECs; type: cell-based, human; details: BBB model cultured with the agent; ACMx2 for 24 hours; FIG. 7A-B

`O=C([O-])c1ccccc1-c1c2ccc(=O)cc-2oc2cc([O-])ccc12.[Na+].[Na+]` [Sodium fluorescein] was tested, and the “Sodium fluorescein permeability of AF-iPSC-BECs compared with HBMECs” value [1] was “significantly lower”.

For `NC1=N[C@H](O)[C@H]2[C@H]3O[C@]4(O)O[C@@H]([C@@H](O)[C@@]2(N1)[C@@H]4O)[C@]3(O)CO` [TTX, tetrodotoxin], the “Effect on spiking activity” value [2] was “eliminated spiking activity”.

With `C[C@]12CCC(=O)C=C1CC[C@@H]1[C@@H]2[C@@H](O)C[C@@]2(C)[C@H]1CC[C@]2(O)C(=O)CO` [hydrocortisone] the “Change in TEER value” [3] was “significant increase”.
